System: BALB/cByJ CRL mice
Assay: SCFA production in caecum content of mice fed low-fiber diets enriched with 5% of tested fibers, measured by Gas-Liquid Chromatography
Assay type: in vivo
Conditions: 5 wt % fiber, versus low-fiber diet only
Source text: 5 week old females BALB/cByJ CRL mice from Charles River were split into several groups and fed during 6 weeks based on the following protocol: • Week 1: low-fiber diet (composition is detailed in table 2) for all groups • Weeks 2 to 6: • Control group (group A): low-fiber diet (same as for week 1) • Test groups (groups B-D): low-fiber diet (same as for week 1) supplemented with 5 wt % of a tested fiber (5% of the total low fiber diet was replaced by 5% of a tested fiber)
The following fibers were tested: • BMOs=bovine milk oligosaccharides: an oligosaccharide mixture comprising 99.3% of GOS, 0.2% of N-acetylated oligosaccharide and 0.5% sialylated oligosaccharide was tested • PDX=polydextrose • Pectin
After 6 weeks, the animals of each group were sacrificed and the content from caecum was collected. The SOFA production were measured by Gas-Liquid Chromatography (GLC; amounts of SOFA in nmol/mg dry weight). The following SOFA were measured: propionate, butyrate, valerate and acetate.
The measure was made based on the following protocol: SOFA in an acid solution (pH 2.0 to 3.0) were separated on a GLC column coated with a polar stationary phase. […] After centrifugation, the sterile-filtered supernatant was ready for analysis by GLC. SOFA were measured simultaneously.
Median ratio values were calculated in order to compare the different fiber-enriched diets on SOFA production.

## polydextrose [PDX]
  Caecal SCFA production (acetate, propionate, butyrate, valerate) compared with low-fiber diet: less SOFA release of all kinds

## Pectin
  Caecal SCFA production (acetate, propionate, butyrate, valerate) compared with low-fiber diet: less SOFA release of all kinds

Source: patent US20190046545A1, “COMPOSITIONS WITH SPECIFIC OLIGOSACCHARIDES TO PREVENT LATER IN LIFE OBESITY OR RELATED COMORBIDITIES, BY INCREASING COLONIC SCFA PRODUCTION AND/OR BY INCREASING GLP-1 SECRETION” (NESTEC S.A., priority 2016, published 2019)
